Data on 1 substance can be found in patent US20010005714A1, “AMPHIPATHIC MOLECULES AS CHOLESTEROL AND OTHER LIPID UPTAKE INHIBITORS” (priority 1996, published 2001).

In test [1] the test system is brush border membrane vesicles (BBMV). Briefly: IC50 of cholesteryl oleate uptake at the brush border membrane (Example 6). It counts as biochemical, rabbit. Conditions: donor 0.1 mg total lipid/ml, acceptor 2 mg protein/ml; 20 min at 25° C. The protocol: An appropriate amount of inhibitor dissolved in 84.5 μl buffer (0.05 M Tris pH 7.4, 0.15 M NaCl) is mixed in an Eppendorf tube at time zero with 5 μl of a dispersion of donor and 10.5 μl of a dispersion of acceptor (i.e. brush border membrane vesicles (BBMV)) in the same buffer. The final concentration of the donor vesicles was 0.1 mg total lipid/ml, that of the acceptor was 2 mg protein/ml. The resulting mixture was incubated for 20 min at 25° C., and the reaction was stopped by adding 60 μl of the incubation medium to 120 μl ice-cold bufferin an airfuge tube. The diluted dispersion was immediately centrifuiaed in the airfuge at […] for 2 min. at 4° C. to separate donor vesicles from BBMV. Two 60 μl aliquots of the donor (=supernatant) were counted in a Beckman LS-7500 liquid scintillating counter to determine the radioactivity remaining in tbe donor.
Small unilamellar egg phosphatidycholine (PC) vesicles containing 1 mol % of cholesterol oleate and a trace amount of ^3H-cholesterol oleyl ether were made by dissolving the appropriate amounts of the lipids in CHCl3/CH3OH, (2:1, by vol.), taking the solution to dryness on a rotary evaporator and drying the residue in vacuo. The dried lipid film was dispersed in the appropriate volume of buffer by hand-shaking. The lipid dispersion was subjected to tip sonication as described in Brunner et al, J. Biol. Chem. 253 7538-7546 (1978). The resulting donor dispersion in buffer was centrifuged in the airfuge at 100000 g for 2 min at […]. Only the top 80% of the donor dispersion after centrifugation was used in the lipid uptake experiment.
BBMV were prepared from frozen rabbit small intestine according to Hauser et al (Biochim. Biophys. Acta 602 567-577 (1980)). Prior to use in the uptake experiment determining IC50 values the BBMV were washed to remove any free protein liberated from the BBM. To this end the BBMV dispersion was diluted with buffer 1:1 in an airfuge tube, and the diluted dispersion was centrifuged in the airfuga at 100000 g for 2 min at […]. The supernatant was is carefully decanted, the pellet was resuspended in buffer to the original volume of the BBMV dispersion, and the dispersion was homogenized. […]

For a further test, the system named is normal human BBMV. Briefly: [14C]Cholesterol uptake from egg PC vesicles by normal human duodenal BBMV. It is filed as biochemical. The protocol:
(§1) Biopsy samples from human duodenum, 20 to 30 mg of wet tissue each, were suspended in 200 μl buffer (12 mM Tris HCl pH 7.2, 300 mM mannitol, 5 mM EGTA, 1 mM phenylmethylsulfonyl fluoride), frozen in liquid nitrogen and stored at −80° C. prior to use. BBMV were prepared by Mg^+2 precipitation (Hauser et al, Biochim. Biophys. Acta 602 567-577 (1980)) as described in detail by Booth et al (Lancet 1 1066-1069 (1985)). Proteinase K treatment of the BBMV was carried out according to Thurnhofer and Hauser (Biochim. Biophys. Acta 1024 249-262 (1990)). […] Small unilamellar phesrholipid vesicles were prepared by tip sonication (Schulthess, Biochemistry 33 4500-4508 (1994)).
(I) Egg PC small unilamellar vesicles containing […] (^14C] cholesterol and BBMV both dispersed in 10 mM Tris-HCl pH 7.2, 0.15 M NaCl, 5 mM EDTA were incubated at room temperature. After timed intervals phospholipid vesicles and BBMV were separated by centrifugation at 115000 g for 2 min in a Beckman airfuge. The radioactivities present in pellet and supernatant were determined by counting aliquots in a Beckman LS 7500 liquid scintillatior counter. Fusion of egg PC small unilamellar vesicles and BBMV as a possible mechanism of cholesterol uptake was ruled out as discussed in detail in previous studies (Thurnhofer and Hauser, Biochemistry 29 2142-2148 (1990); Compassi, Biochemistry 34 16473-16482 (1995) and Schulthess, J. Lipid. Res. 37 2405-2419 (1996)).
The experimental data were computer-fitted using the following equation valid for single-exponential exchange reactions: X=X∞+[XO−X∞]e^-k1^[(a+b)/a]t, where XO, X and X∞represent the fractions of the labelled lipid in the donor at times 0, t and at equilibrium, respectively. K1 is the pseudo-first-order rate constant of the reaction and a and b are the lipid pools of acceptor and donor, respectively (McKay, Nature 142 997-998 (1938) and Mutsch et al, Biochemistry 25 2134-2140 (1986).
(§2) Kinetic measurements were also carried out in the presence of inhibitors; synthetic peptides or apolipoproteins were added to the […] of donor and acceptor vesicles. Cholesterol uptake by native and proteinase K treated BBMV was determined in the presence of increasing concentrations of Ac-18A-NH2, the difference between cholesterol uptake by native and proteinase K treated BBMV is referred as protein-mediated cholesterol uptake in FIG. 6. The IC50 values were determined according to Methods Enzymol. 37 3-22 (1975).

The subject of test [2] is abetalipoproteinemic BBMV. Briefly: [14C]Cholesterol uptake from egg PC vesicles by abetalipoproteinemic BBMV. It counts as biochemical, human. Conditions: donor egg PC vesicles 0.01 mg lipid/ml, acceptor abetalipoproteinemic BBMV 0.25 mg lipid/ml; read-out: Inhibition IC50: concentration required to reduce protein-mediated cholesterol uptake by 50%. The protocol:
as §1, with “(1994)). […]” for “(1994)).”
(§3) Kinetic measurements were also carried out in the presence of inhibitors; synthetic peptides or apolipoproteins were added to the […] of donor and acceptor vesicles. Cholesterol uptake by native and proteinase K treated BBMV was determined in the presence of increasing concentrations of Ac-18A-NH2, the difference between cholesterol uptake by native and proteinase K treated BBMV is referred as protein-mediated cholesterol uptake in FIG. 6. The IC50 values were determined according to Methods Enzymol. […]

For test [3], the target named is proteinase K-treated normal BBMV. Put plainly: [14C]Cholesterol uptake from egg PC vesicles by proteinase K-treated normal BBMV. It counts as biochemical, human. The protocol:
as §1, with “(1994)). […]” for “(1994)).”
as §3

The nature of test [4]: [14C]Cholesterol transfer from egg PC vesicles to egg PC/egg PA vesicles. It counts as biochemical. The protocol: (II) Similarly, egg PC small unilamellar vesicles containing 1 mol % [^14C] cholesterol as the donor and small unilamellar vesicles of egg PC/egg PA (85:15, mole ratio) as the acceptor were incubated at room temperature. After timed intervals aliquots of the incubation mixture were filtered through DEAE Sepharose C1-CB columns, which retained the negatively charged vesicles. Pure egg PC vesicles were eluted and their radioactivity determined.
as §2

The test system of the next test is BBMVs. Briefly: Inhibition of cholesteryl oleate uptake by BBMVs by peptides of varying lengths (Example 8). It counts as biochemical. Conditions: 120 μg peptide/ml. The protocol: going from one peptide to the other (top→bottom) 3 amino acids were removed from the N-terminus. The inhibitory effect of the four peptides listed above were compared at 120 μg peptide/ml. The lipid uptake by BBMVs was measured in the presence of 120 μg peptide/ml each as described below.
Donor and acceptor particles dispersed in Tris/NaCl buffer were centrifuged in a Beckman airfuge at 115000 g is for 2 min at 4° C. The dispersion of the acceptor yielded a pellet which was resuspended in Tris/NaCl buffer. Varying amounts of inhibitor dissolved in the same buffer were added to the acceptor dispersion and at time zero the dispersiorn of acceptor with or without inhibitor was mixed with the top 80% of the supernatant obtained by centrifugation of the donor dispersion. The final concentration of the donor was 0.05 mg total lipid/ml and that of the acceptor was 5 mg protein/ml. The resulting dispersion was incubated at 23° C. and after timed intervals the sterol uptake was stopped by dilution of the incubation medium with 2 volumes of Tris/NaCl buffer. BBMV were separated from the donor by centrifugation in the Beckman airfuge at 115000 g for 2 min at 4° C. The radioactivities in the supernatant containing the donor and in the pellet containing the BBMV (acceptor) were determined in a Beckman LS 7500 scintillation counter.

Take “Ac-Asp-Trp-Leu-Lys-Alα-Phe-Tyr-Asp-Lys-Val-Alα -Glu-Lys-Leu-Lys-Glu-Alα-Phe-NH2 [Ac-18A-NH2, amphipathic α-helix of class A peptide, N-acetylated and C-amidated 18A]”: the IC50 in test [1] came to 16 ± 1 µM; with normal human BBMV (donor egg PC vesicles 0.01 mg lipid/ml, acceptor normal human BBMV 0.25 mg lipid/ml, 20 min, read-out: Inhibition IC50: concentration required to reduce protein-mediated cholesterol uptake by 50%) it was 23 ± 1 µM; in test [2] it was 23 ± 3 µM. In test [1], the “IC50 (μg/mL) of cholesteryl oleate uptake at the brush border membrane” value was 35 ± 2 µg/mL. Moreover, in the test on normal human BBMV, the “effect on passive cholesterol transfer (in words)” value is given as “no inhibitory effect”. Further, the “half time of residual cholesterol uptake by native BBMV not inhibited by the peptide” value in the test on normal human BBMV (60 μM Ac-18A-NH2) amounted to 6.7 ± 1.4 h. Moreover, the “inhibition of protein-mediated cholesterol uptake (in words)” value in the test with normal human BBMV (human duodenal BBMV) is “effectively and completely inhibited”. Also, the “Inhibition IC50” value in test [3] (donor egg PC vesicles 0.01 mg lipid/ml, acceptor proteinase K-treated normal BBMV 0.25 mg lipid/ml) was “no inhibition”; in test [4] (donor egg PC vesicles 0.01 mg lipid/ml, acceptor egg PC/egg PA vesicles 0.25 mg lipid/ml), “no inhibition”. Also, the “inhibitory effect on cholesterol uptake (in words)” value in test [3] (proteinase K-treated BBMV) was “no inhibitory effect”. The “inhibitory effect on cholesterol transfer between phospholipid vesicles (in words)” value in test [4] is “no inhibitory effect”. Also, in the test on BBMVs, the “inhibitory effect on cholesteryl oleate uptake (in words, footnote)” value is “Useful inhibitory effect is seen with Peptides Nos. 1 and 2”. For the same substance, the “Inhibition of Cholesteryloleate Uptake In. %” value with BBMVs (donor 0.05 mg total lipid/ml, acceptor 5 mg protein/ml, 23° C.) came to 100%.
